Results published in paper PMC5218480 (PLoS ONE, 2017).

Test system: MV-4-11 cells
Test: Gene expression microarray analysis (Affymetrix PrimeView) and GSEA
Format: cell-based, human
Set-up: RFU PODN (11730768_x_at) / Fold change /veh PODN (11730768_x_at) / RFU LINC00158 (11744669_a_at) / Fold change /veh LINC00158 (11744669_a_at) / RFU DUSP10 (11751237_a_at) / Fold change /veh DUSP10 (11751237_a_at) / RFU ID3 (11757404_x_at) / Fold change /veh ID3 (11757404_x_at) / RFU PLEKHG5 (11737974_s_at) / Fold change /veh PLEKHG5 (11737974_s_at) / RFU LRRC4B (11730491_at) / Fold change /veh LRRC4B (11730491_at) / RFU GIMAP4 (11747438_a_at) / Fold change /veh GIMAP4 (11747438_a_at) / RFU KRT8 (11758183_x_at) / Fold change /veh KRT8 (11758183_x_at) / RFU CNN1 (11734310_a_at) / Fold change /veh CNN1 (11734310_a_at) / RFU VPS37D (11726825_at) / Fold change /veh VPS37D (11726825_at) / RFU C10orf10 (11716522_x_at) / Fold change /veh C10orf10 (11716522_x_at) / RFU KIR2DL2 /// KIR2DL4 /// KIR2DL5A /// KIR2DL5B /// KIR2DS1 /// KIR2DS2 /// KIR2DS3 /// KIR2DS4 /// KIR3DL3 /// KIR3DL3 /// KIR3DS1 (11738374_at) / Fold change /veh KIR2DL2 /// KIR2DL4 /// KIR2DL5A /// KIR2DL5B /// KIR2DS1 /// KIR2DS2 /// KIR2DS3 /// KIR2DS4 /// KIR3DL3 /// KIR3DL3 /// KIR3DS1 (11738374_at) / RFU C1QL1 (11718748_at) / Fold change /veh C1QL1 (11718748_at) / RFU TMPRSS4 (11747572_a_at) / Fold change /veh TMPRSS4 (11747572_a_at) / RFU HAMP (11756126_x_at) / Fold change /veh HAMP (11756126_x_at) / RFU RNFT2 (11725882_a_at) / Fold change /veh RNFT2 (11725882_a_at) / RFU NR4A2 (11747474_a_at) / Fold change /veh NR4A2 (11747474_a_at) / RFU ABCC12 (11746883_a_at) / Fold change /veh ABCC12 (11746883_a_at) / RFU TMEM136 (11760407_x_at) / Fold change /veh TMEM136 (11760407_x_at) / RFU CLDN22 /// WWC2 (11732394_at) / Fold change /veh CLDN22 /// WWC2 (11732394_at) / RFU HLA-DPB1 (11760878_x_at) / Fold change /veh HLA-DPB1 (11760878_x_at) / RFU SPINT1 (11716480_a_at) / Fold change /veh SPINT1 (11716480_a_at) / RFU GAP43 (11754022_s_at) / Fold change /veh GAP43 (11754022_s_at) / RFU A4GNT (11735810_at) / Fold change /veh A4GNT (11735810_at) / RFU PRB3 (11715151_x_at) / Fold change /veh PRB3 (11715151_x_at) / RFU TUBB4B (11761932_at) / Fold change /veh TUBB4B (11761932_at) / RFU CAPN14 (11732068_a_at) / Fold change /veh CAPN14 (11732068_a_at) / RFU TMCC2 (11721928_a_at) / Fold change /veh TMCC2 (11721928_a_at) / RFU IRGQ (11745062_a_at) / Fold change /veh IRGQ (11745062_a_at) / RFU FAM174B (11720279_a_at) / Fold change /veh FAM174B (11720279_a_at) / RFU TMPRSS4 (11748680_a_at) / Fold change /veh TMPRSS4 (11748680_a_at) / RFU FAM212B (11763350_a_at) / Fold change /veh FAM212B (11763350_a_at) / RFU PLEKHG5 (11743358_a_at) / Fold change /veh PLEKHG5 (11743358_a_at) / RFU ZSCAN30 (11745921_a_at) / Fold change /veh ZSCAN30 (11745921_a_at) / RFU CMKLR1 (11741424_a_at) / Fold change /veh CMKLR1 (11741424_a_at) / RFU LOC101060620 /// MAPK8IP1 (11723275_at) / Fold change /veh LOC101060620 /// MAPK8IP1 (11723275_at) / RFU SPTSSB (11747773_x_at) / Fold change /veh SPTSSB (11747773_x_at) / RFU PRSS12 (11739890_at) / Fold change /veh PRSS12 (11739890_at) / RFU BIN1 (11741810_x_at) / Fold change /veh BIN1 (11741810_x_at) / RFU WNT11 (11732464_a_at) / Fold change /veh WNT11 (11732464_a_at) / RFU C10orf10 (11716521_a_at) / Fold change /veh C10orf10 (11716521_a_at) / RFU C5orf56 (11738089_at) / Fold change /veh C5orf56 (11738089_at) / RFU CYB561 (11721691_x_at) / Fold change /veh CYB561 (11721691_x_at) / RFU ANKRD19P (11752326_a_at) / Fold change /veh ANKRD19P (11752326_a_at) / RFU OR2T12 /// OR2T33 /// OR2T8 (11738714_s_at) / Fold change /veh OR2T12 /// OR2T33 /// OR2T8 (11738714_s_at) / RFU VCAN (11748164_a_at) / Fold change /veh VCAN (11748164_a_at) / RFU JSRP1 (11732532_at) / Fold change /veh JSRP1 (11732532_at) / RFU KRTAP10-11 (11738290_x_at) / Fold change /veh KRTAP10-11 (11738290_x_at) / RFU MYO3A (11730013_a_at) / Fold change /veh MYO3A (11730013_a_at) / RFU EBF3 (11725865_a_at) / Fold change /veh EBF3 (11725865_a_at) / RFU CAMK2N1 (11719241_x_at) / Fold change /veh CAMK2N1 (11719241_x_at) / RFU C5orf56 (11738088_a_at) / Fold change /veh C5orf56 (11738088_a_at) / RFU OLFML3 (11715873_a_at) / Fold change /veh OLFML3 (11715873_a_at) / RFU LOC100653217 /// NTM (11731650_a_at) / Fold change /veh LOC100653217 /// NTM (11731650_a_at) / RFU MAPK11 (11762145_a_at) / Fold change /veh MAPK11 (11762145_a_at) / RFU FIZ1 (11724087_x_at) / Fold change /veh FIZ1 (11724087_x_at) / RFU OASL (11726364_x_at) / Fold change /veh OASL (11726364_x_at) / RFU SOX15 (11748057_x_at) / Fold change /veh SOX15 (11748057_x_at) / RFU CD79A (11719716_a_at) / Fold change /veh CD79A (11719716_a_at) / RFU HIST1H1D (11736915_at) / Fold change /veh HIST1H1D (11736915_at) / RFU CASKIN2 (11723855_a_at) / Fold change /veh CASKIN2 (11723855_a_at) / RFU LOC730098 (11760151_x_at) / Fold change /veh LOC730098 (11760151_x_at) / RFU OR4N2 (11742367_at) / Fold change /veh OR4N2 (11742367_at) / RFU PRRT2 (11749266_a_at) / Fold change /veh PRRT2 (11749266_a_at) / RFU SNX32 (11753110_a_at) / Fold change /veh SNX32 (11753110_a_at) / RFU CDHR5 (11726645_a_at) / Fold change /veh CDHR5 (11726645_a_at) / RFU RCAN1 (11760418_a_at) / Fold change /veh RCAN1 (11760418_a_at) / RFU FAM167A (11723789_a_at) / Fold change /veh FAM167A (11723789_a_at) / RFU FAM26E (11764081_at) / Fold change /veh FAM26E (11764081_at) / RFU ISYNA1 (11749810_s_at) / Fold change /veh ISYNA1 (11749810_s_at) / RFU ACY1 (11761880_at) / Fold change /veh ACY1 (11761880_at) / RFU 11764098_at / Fold change /veh 11764098_at / RFU SAMD14 (11745864_x_at) / Fold change /veh SAMD14 (11745864_x_at) / RFU NPB (11741838_a_at) / Fold change /veh NPB (11741838_a_at) / RFU TMPRSS6 (11731388_a_at) / Fold change /veh TMPRSS6 (11731388_a_at) / RFU KRTAP10-2 (11738614_at) / Fold change /veh KRTAP10-2 (11738614_at) / RFU ARHGAP8 /// PRR5-ARHGAP8 (11727945_x_at) / Fold change /veh ARHGAP8 /// PRR5-ARHGAP8 (11727945_x_at) / RFU KRTAP5-7 /// NADSYN1 (11734609_at) / Fold change /veh KRTAP5-7 /// NADSYN1 (11734609_at) / RFU RASL12 (11751679_a_at) / Fold change /veh RASL12 (11751679_a_at) / RFU CDKN2B (11736163_a_at) / Fold change /veh CDKN2B (11736163_a_at) / RFU PRF1 (11729649_at) / Fold change /veh PRF1 (11729649_at) / RFU, ZNF638 /// ZNF638-IT1 / Fold change vs veh, ZNF638 /// ZNF638-IT1 / RFU, PANK3 / Fold change vs veh, PANK3 / RFU, SH3YL1 / Fold change vs veh, SH3YL1 / RFU, ZEB2 / Fold change vs veh, ZEB2 / RFU, NRIP1 / Fold change vs veh, NRIP1 / RFU, PTTG1IP / Fold change vs veh, PTTG1IP / RFU, CAPN2 / Fold change vs veh, CAPN2 / RFU, MED14 / Fold change vs veh, MED14 / RFU, SNORA58 / Fold change vs veh, SNORA58 / RFU, C1orf63 / Fold change vs veh, C1orf63 / RFU, LRRFIP1 / Fold change vs veh, LRRFIP1 / RFU, NDUFAF7 / Fold change vs veh, NDUFAF7 / RFU, SLC12A2 / Fold change vs veh, SLC12A2 / RFU, IBTK / Fold change vs veh, IBTK / RFU, ESF1 / Fold change vs veh, ESF1 / Fold change vs veh, TMEM50B / RFU, TAOK1 / Fold change vs veh, TAOK1 / RFU, ACBD3 / Fold change vs veh, ACBD3 / RFU, TMA16 / Fold change vs veh, TMA16 / RFU, RWDD3 / Fold change vs veh, RWDD3 / RFU, BCAT1 / Fold change vs veh, BCAT1 / RFU, EDEM3 / Fold change vs veh, EDEM3 / RFU, TMEM33 / Fold change vs veh, TMEM33 / RFU, WDR75 / Fold change vs veh, WDR75 / RFU, AHCTF1 / Fold change vs veh, AHCTF1 / RFU, TFRC / Fold change vs veh, TFRC / RFU, ZDHHC17 / Fold change vs veh, ZDHHC17 / RFU, NOM1 / Fold change vs veh, NOM1 / RFU, ARL8B / Fold change vs veh, ARL8B / RFU, ZBTB11 / Fold change vs veh, ZBTB11 / RFU, TAMM41 / Fold change vs veh, TAMM41 / RFU, KIAA1704 /// LOC100996395 / Fold change vs veh, KIAA1704 /// LOC100996395 / RFU, ING1 / Fold change vs veh, ING1 / RFU, TRMT61B / Fold change vs veh, TRMT61B / RFU, FUBP3 / Fold change vs veh, FUBP3 / RFU, TP53 / Fold change vs veh, TP53 / RFU, TNKS2 / Fold change vs veh, TNKS2 / RFU, ZFP14 / Fold change vs veh, ZFP14 / RFU, ACTR2 / Fold change vs veh, ACTR2 / RFU, PPP3R1 / Fold change vs veh, PPP3R1 / RFU, PIK3R1 / Fold change vs veh, PIK3R1 / RFU, HNRNPA1 / Fold change vs veh, HNRNPA1 / RFU, RNF170 / Fold change vs veh, RNF170 / RFU, ZNF28 / Fold change vs veh, ZNF28 / RFU, RNGTT / Fold change vs veh, RNGTT / RFU, OGT / Fold change vs veh, OGT / RFU, BRD1 / Fold change vs veh, BRD1 / RFU, MARS / Fold change vs veh, MARS / RFU, ZNF655 / Fold change vs veh, ZNF655 / RFU, FAHD1 / Fold change vs veh, FAHD1 / RFU, BDP1 / Fold change vs veh, BDP1 / RFU, LRRCC1 / Fold change vs veh, LRRCC1 / RFU, ARID1A / Fold change vs veh, ARID1A / RFU, ZNF146 / Fold change vs veh, ZNF146 / RFU, ZNF330 / Fold change vs veh, ZNF330 / RFU, GPN3 / Fold change vs veh, GPN3 / RFU, C9orf123 / Fold change vs veh, C9orf123 / RFU, N4BP2L2 / Fold change vs veh, N4BP2L2 / RFU, ARFIP1 / Fold change vs veh, ARFIP1 / RFU, FAM179B / Fold change vs veh, FAM179B / RFU, BCL10 / Fold change vs veh, BCL10 / RFU, UHRF1BP1L / Fold change vs veh, UHRF1BP1L / RFU, BET1 / Fold change vs veh, BET1 / RFU, CNOT2 / Fold change vs veh, CNOT2 / RFU, ZNF268 / Fold change vs veh, ZNF268 / Fold change vs veh, ZNF507 / RFU, DGCR2 / Fold change vs veh, DGCR2 / RFU, WDSUB1 / Fold change vs veh, WDSUB1 / Fold change vs veh, HSP90B1 /// MIR3652 / RFU, ADSS / Fold change vs veh, ADSS / RFU, GK / Fold change vs veh, GK / RFU, ZNF148 / Fold change vs veh, ZNF148 / RFU, TAF9 / Fold change vs veh, TAF9 / RFU, SLC1A5 / Fold change vs veh, SLC1A5 / RFU, SLMO2 / Fold change vs veh, SLMO2 / RFU, ABCC4 / Fold change vs veh, ABCC4 / RFU, LOC101060439 /// RAP1B / Fold change vs veh, LOC101060439 /// RAP1B / RFU, RFX7 / Fold change vs veh, RFX7 / RFU, GTPBP10 / Fold change vs veh, GTPBP10 / RFU, CNEP1R1 / Fold change vs veh, CNEP1R1 / RFU, BIVM-ERCC5 /// ERCC5 / Fold change vs veh, BIVM-ERCC5 /// ERCC5 / RFU, ILF3 / Fold change vs veh, ILF3 / RFU 11762660_at / Fold change /veh 11762660_at / RFU VCAN (11757783_s_at) / Fold change /veh VCAN (11757783_s_at) / RFU DDX43 (11728927_at) / Fold change /veh DDX43 (11728927_at) / RFU KRT8 (11758188_x_at) / Fold change /veh KRT8 (11758188_x_at) / RFU NKD1 (11759106_at) / Fold change /veh NKD1 (11759106_at) / RFU SRD5A1 (11742802_a_at) / Fold change /veh SRD5A1 (11742802_a_at) / RFU TPSAB1 /// TPSB2 (11721975_s_at) / Fold change /veh TPSAB1 /// TPSB2 (11721975_s_at) / RFU GSTM3 (11746129_a_at) / Fold change /veh GSTM3 (11746129_a_at) / RFU IL23R (11737362_x_at) / Fold change /veh IL23R (11737362_x_at) / RFU TMEM51 (11727254_a_at) / Fold change /veh TMEM51 (11727254_a_at) / RFU PIWIL2 (11732686_x_at) / Fold change /veh PIWIL2 (11732686_x_at) / RFU ORM1 (11744905_x_at) / Fold change /veh ORM1 (11744905_x_at) / RFU CCDC152 (11743942_at) / Fold change /veh CCDC152 (11743942_at) / RFU ECM1 (11717891_a_at) / Fold change /veh ECM1 (11717891_a_at) / RFU IL23R (11748794_a_at) / Fold change /veh IL23R (11748794_a_at) / RFU TNFAIP8L3 (11732012_x_at) / Fold change /veh TNFAIP8L3 (11732012_x_at) / RFU MBOAT4 (11741988_at) / Fold change /veh MBOAT4 (11741988_at) / RFU 11764193_at / Fold change /veh 11764193_at / RFU TMEM53 (11763286_at) / Fold change /veh TMEM53 (11763286_at) / RFU MAGEB2 (11727129_at) / Fold change /veh MAGEB2 (11727129_at) / RFU TMEM200A (11744735_a_at) / Fold change /veh TMEM200A (11744735_a_at) / RFU CCDC152 (11751479_a_at) / Fold change /veh CCDC152 (11751479_a_at) / RFU FAM211A (11726209_a_at) / Fold change /veh FAM211A (11726209_a_at) / RFU RGS16 (11746705_a_at) / Fold change /veh RGS16 (11746705_a_at) / RFU VCAN (11755009_s_at) / Fold change /veh VCAN (11755009_s_at) / RFU RHOB (11743442_s_at) / Fold change /veh RHOB (11743442_s_at) / RFU RGS16 (11720943_a_at) / Fold change /veh RGS16 (11720943_a_at) / RFU RGS16 (11720944_at) / Fold change /veh RGS16 (11720944_at) / RFU, VPS4B / Fold change vs veh, VPS4B / RFU, CREB1 / Fold change vs veh, CREB1 / RFU, DNAJC13 / Fold change vs veh, DNAJC13 / RFU, GNAQ / Fold change vs veh, GNAQ / RFU, CDK5R1 / Fold change vs veh, CDK5R1 / RFU, ZRANB3 / Fold change vs veh, ZRANB3 / RFU, CUL4A / Fold change vs veh, CUL4A / RFU, CCNY / Fold change vs veh, CCNY / RFU, UFL1 / Fold change vs veh, UFL1 / RFU, COG3 / Fold change vs veh, COG3 / RFU, DIAPH2 / Fold change vs veh, DIAPH2 / RFU, SKA2 / Fold change vs veh, SKA2 / RFU, AFF3 / Fold change vs veh, AFF3 / RFU, LMF1 / Fold change vs veh, LMF1 / RFU, IPO11 / Fold change vs veh, IPO11 / RFU, DFFB / Fold change vs veh, DFFB / RFU, FOXP1 / Fold change vs veh, FOXP1 / RFU, CARD8 / Fold change vs veh, CARD8 / RFU, STRN3 / Fold change vs veh, STRN3 / RFU, ADK / Fold change vs veh, ADK / RFU, RASSF2 / Fold change vs veh, RASSF2 / RFU, WIPF1 / Fold change vs veh, WIPF1 / RFU, LARP1B / Fold change vs veh, LARP1B / RFU, RASA1 / Fold change vs veh, RASA1 / RFU, RB1 / Fold change vs veh, RB1 / RFU, PPFIA1 / Fold change vs veh, PPFIA1 / RFU, MAT2A / Fold change vs veh, MAT2A / RFU, CCT5 / Fold change vs veh, CCT5 / RFU, WDR92 / Fold change vs veh, WDR92 / RFU, CUX1 / Fold change vs veh, CUX1 / RFU, TTC7A / Fold change vs veh, TTC7A / RFU, TMEM135 / Fold change vs veh, TMEM135 / RFU, DEPTOR / Fold change vs veh, DEPTOR / RFU, CPM / Fold change vs veh, CPM / RFU, DNAJB6 / Fold change vs veh, DNAJB6 / RFU, CACNA2D3 / Fold change vs veh, CACNA2D3 / RFU, DTX4 / Fold change vs veh, DTX4 / RFU, TFCP2 / Fold change vs veh, TFCP2 / RFU, GMCL1 /// GMCL1P1 / Fold change vs veh, GMCL1 /// GMCL1P1 / RFU, AEBP2 / Fold change vs veh, AEBP2 / RFU, SNHG1 /// SNORD22 /// SNORD25 /// SNORD26 /// SNORD27 /// SNORD28 /// SNORD29 /// SNORD31 / Fold change vs veh, SNHG1 /// SNORD22 /// SNORD25 /// SNORD26 /// SNORD27 /// SNORD28 /// SNORD29 /// SNORD31 / Fold change (Aza/veh), C12orf56 (ProbeSet 11735607_a_at) / Fold change (ACY-1035/veh), C12orf56 (ProbeSet 11735607_a_at) / Fold change (Aza/veh), FGFR1OP (ProbeSet 11751329_s_at) / Fold change (ACY-1035/veh), FGFR1OP (ProbeSet 11751329_s_at) / Fold change (Aza/veh), VPS36 (ProbeSet 11739960_a_at) / Fold change (ACY-1035/veh), VPS36 (ProbeSet 11739960_a_at) / RFU SYPL1 (11715823_x_at) / Fold change /veh SYPL1 (11715823_x_at) / RFU IGFBP7 (11715501_s_at) / Fold change /veh IGFBP7 (11715501_s_at) / RFU REEP3 (11722064_at) / Fold change /veh REEP3 (11722064_at) / RFU IGLL1 (11728026_x_at) / Fold change /veh IGLL1 (11728026_x_at): dose or concentration left out as unconfirmed
Conditions: MV-4-11 cells, 48 hours

Nc1ncn([C@@H]2O[C@H](CO)[C@@H](O)[C@H]2O)c(=O)n1 [azacitidine]
RFU MBOAT4 (11741988_at): 11.61 RFU
